Test results taken from article PMC11325214 (2024).

Tested on: L-Procaine aptamer (DNA, aptamer) GGCGACAAGGAAAATCCTTCAACGAAGGTGGGTGGCC
Experiment: E-AB square wave voltammetry, 3D-printed gold electrode cell
Details: undiluted human serum; in serum; immobilised aptamer; apparent; Hill fit

- EC50: 59.2 mM
SMILES: CCN(CC)CCOC(=O)c1ccc(N)cc1
